Assay results taken from BindingDB's records for doi:10.1016/j.bmc.2019.115235 (Shandong University, 2020).

How the values were obtained:
[1] = target: T1, Hypoxia-inducible factor 1-alpha (Homo sapiens, UniProt Q16665); test: […] of HIF1 in human T47D cells
[2] = target: T1, Hypoxia-inducible factor 1-alpha; test: […] of HIF1 in human T47D cells after 30 mins by luciferase reporter gene assay

T1 sequence (Q16665 whole entry): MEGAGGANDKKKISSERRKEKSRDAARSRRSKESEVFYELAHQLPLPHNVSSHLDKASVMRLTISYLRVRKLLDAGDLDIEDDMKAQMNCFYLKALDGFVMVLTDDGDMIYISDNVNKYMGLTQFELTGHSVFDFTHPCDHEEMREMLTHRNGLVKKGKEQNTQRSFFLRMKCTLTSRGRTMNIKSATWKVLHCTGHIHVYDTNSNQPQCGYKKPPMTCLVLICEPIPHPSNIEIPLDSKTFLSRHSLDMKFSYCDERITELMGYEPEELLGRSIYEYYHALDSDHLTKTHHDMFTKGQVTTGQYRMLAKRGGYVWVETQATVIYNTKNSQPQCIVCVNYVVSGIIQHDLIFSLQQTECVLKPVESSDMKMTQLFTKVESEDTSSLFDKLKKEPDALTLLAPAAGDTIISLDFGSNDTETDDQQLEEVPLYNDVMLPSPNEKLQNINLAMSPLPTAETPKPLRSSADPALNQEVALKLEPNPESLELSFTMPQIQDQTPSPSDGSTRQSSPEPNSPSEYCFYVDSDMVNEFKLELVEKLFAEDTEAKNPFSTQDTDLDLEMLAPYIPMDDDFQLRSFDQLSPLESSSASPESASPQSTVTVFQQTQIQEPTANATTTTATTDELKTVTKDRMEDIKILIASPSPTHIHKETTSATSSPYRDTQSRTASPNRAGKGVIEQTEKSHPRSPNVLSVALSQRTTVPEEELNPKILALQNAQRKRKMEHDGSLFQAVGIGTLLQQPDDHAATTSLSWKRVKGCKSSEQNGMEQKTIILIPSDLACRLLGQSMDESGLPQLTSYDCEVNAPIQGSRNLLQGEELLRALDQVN

IC50 [1]	IC50 [2]	SMILES
20 nM	–	COc1ccc([C@@H](O)[C@@H](C)Oc2ccc([C@H]3O[C@H](c4ccc(OC)c(OC)c4)[C@H](C)[C@H]3C)cc2OC)cc1OC
–	3 nM	COc1ccc([C@@H](O)[C@@H](C)Oc2ccc([C@@H]3CC[C@H](c4ccc(O[C@H](C)[C@H](O)c5ccc(OC)c(OC)c5)c(OC)c4)C3)cc2OC)cc1OC
